From publication PMC10913484, “Hydroxyhexylitaconic acids as potent IMP-type metallo-β-lactamase inhibitors for controlling carbapenem resistance in Enterobacterales” (Microbiology Spectrum, 2024)
pIC50, pKi: −log10 of the molar value. Converted amounts (≈) assume the structure as drawn. Where two headings read alike, the source gives them in different places.

Legend:
[1] = test system: K. pneumoniae NUBL-8 (IMP-1); assay: Susceptibility test, clinical isolate; format: cell-based; settings: Klebsiella pneumoniae
Method: (§1) Susceptibility testing, based on the microdilution method, was performed according to the guidelines of the Clinical and Laboratory Standards Institute ([36]).

[2] = test system: K. pneumoniae MS5674 (NDM-1/VIM-1); assay: Susceptibility test, clinical isolate; format: cell-based; settings: Klebsiella pneumoniae
Method: as §1

[3] = test system: K. oxytoca NUBL-827 (IMP-1); assay: Susceptibility test, clinical isolate; format: cell-based; settings: Klebsiella oxytoca
Method: as §1

[4] = test system: K. pneumoniae AR0034 (IMP-4); assay: Susceptibility test, clinical isolate; format: cell-based; settings: Klebsiella pneumoniae, K. pneumoniae AR0034 (IMP-4)
Method: as §1

E. coli 465 (IMP-1) = assay: Susceptibility test, clinical isolate; format: cell-based; settings: Escherichia coli
Method: as §1

E. coli 426 (IMP-1) = assay: Susceptibility test, clinical isolate; format: cell-based; settings: Escherichia coli
Method: as §1

E. coli NUBL-22 (IMP-6) = assay: Susceptibility test, clinical isolate; format: cell-based; settings: Escherichia coli
Method: as §1

IMP-1 [5] = target: T1, IMP-1 (Serratia marcescens, UniProt P52699); format: biochemical; settings: IMP-1 with agent (5 mM stock), dialysis
T1 construct: made in house
T1 sequence (P52699 19-246, looked up, species assumed): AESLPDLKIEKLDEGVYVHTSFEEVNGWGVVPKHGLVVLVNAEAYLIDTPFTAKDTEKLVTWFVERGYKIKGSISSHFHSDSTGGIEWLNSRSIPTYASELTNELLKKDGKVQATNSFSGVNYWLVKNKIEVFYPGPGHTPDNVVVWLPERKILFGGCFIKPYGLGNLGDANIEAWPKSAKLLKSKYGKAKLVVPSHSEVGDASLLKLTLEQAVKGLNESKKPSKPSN
Method: A total of 5 µL of IMP-1 (100 µM) and 2 µL of EDTA (5 mM) or HHIA (5 mM) were mixed in 100 µL of 20 mM HEPES buffer (pH 7.5) pretreated with Chelex 100 resin (Bio-Rad) and incubated on ice for 30 min. The samples were dialyzed against ultrapure water at 4°C for 6 h using Slide-A-Lyzer Dialysis Cassettes (cutoff, 3.5 K) (Thermo Fisher Scientific) and treated with proteinase K (FUJIFILM Wako Pure Chemical Corporation) at 37°C for 1 h. The zinc concentration in the samples was determined using a Zinc Assay Kit (MG Metallogenics).

SMB-1 = assay: In vitro inhibition assay (IPM hydrolysis); format: biochemical; settings: even at high doses (100 µM)
Method: (§2) MBLs were incubated with HHIAs in 20 mM HEPES buffer (pH 7.5) containing 200 mM NaCl and 50 µg/mL BSA at 30°C for 5 min. IPM was added at a concentration of 100 µM, and the rate of IPM hydrolysis was monitored at 297 nm. The initial velocity (v0) rates were plotted against HHIA’s logarithmic concentrations, and the data were fitted to a four-parameter variable slope to obtain the half-maximal inhibitor concentration (IC50) values using GraphPad Prism 9 software (GraphPad Software). The inhibition constant (Ki) was determined as follows: v0 was measured after varying the concentrations of IPM and HHIAs, and inverse v0 (1/v0) was plotted against the inverse IPM concentration [1/(IPM)]. Lineweaver–Burk plots were created to obtain Ki values under the competitive inhibition model using the SigmaPlot 14 suite (Hulinks).

VIM-2 = target: T2, VIM-2 (Escherichia coli, UniProt Q5U7L7); assay: In vitro inhibition assay (IPM hydrolysis); format: biochemical
T2 construct: made in house
Method: as §2

IMP-6 = target: T3, IMP-6 (Serratia marcescens, UniProt P52699, S214G); assay: In vitro inhibition assay (IPM hydrolysis); format: biochemical
T3 construct: made in house
T3 sequence (P52699 19-246 S214G): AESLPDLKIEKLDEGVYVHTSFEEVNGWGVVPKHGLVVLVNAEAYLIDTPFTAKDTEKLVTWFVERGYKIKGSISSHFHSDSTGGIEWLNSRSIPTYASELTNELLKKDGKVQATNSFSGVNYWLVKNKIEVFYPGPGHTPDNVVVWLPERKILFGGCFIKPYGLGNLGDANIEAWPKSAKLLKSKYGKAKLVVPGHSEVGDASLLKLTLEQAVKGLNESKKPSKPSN
Method: as §2

NDM-1 = target: T4, NDM-1 (Klebsiella pneumoniae, UniProt C7C422); assay: In vitro inhibition assay (IPM hydrolysis); format: biochemical; settings: even at high doses (100 µM)
T4 construct: made in house
T4 sequence (C7C422 29-270 limits assumed): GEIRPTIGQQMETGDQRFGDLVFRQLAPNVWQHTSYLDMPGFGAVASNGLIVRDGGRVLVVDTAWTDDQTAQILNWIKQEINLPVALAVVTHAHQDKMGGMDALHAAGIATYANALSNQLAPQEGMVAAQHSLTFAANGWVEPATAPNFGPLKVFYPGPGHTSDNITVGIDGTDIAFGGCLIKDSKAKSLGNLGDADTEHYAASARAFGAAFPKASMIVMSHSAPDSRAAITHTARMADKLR
Method: as §2

IMP-1 [6] = target: T1, IMP-1; assay: In vitro inhibition assay (IPM hydrolysis); format: biochemical
Method: as §2

IMP-1 [7] = target: T1, IMP-1; format: binding; settings: DSF; control protein 52.5°C
Method: The DSF assay was performed using the Protein Thermal Shift Dye Kit (Thermo Fisher Scientific) and StepOnePlus Real-Time PCR Systems (Applied Biosystems) as follows: 2 µL of IMP-1 enzyme (100 µM), 1 µL of EDTA or HHIA solution (5 mM), 2.5 µL of diluted Protein Thermal Shift Dye (32×), 5 µL of Protein Thermal Shift buffer, and 9.5 µL of water were mixed in a test tube and incubated for 15 min at 4°C. Four replicates of each sample were performed. The fluorescence was monitored at 0.7°C increments from 4°C to 99°C. The relative fluorescence units were fitted with the Boltzmann equation using the TSA-CRAFT software to determine the melting point (Tm) ([47]).

E. coli DH5α pCL-SMB-1 = assay: Susceptibility test (microdilution), transformant; format: cell-based; settings: E. coli DH5α pCL-SMB-1
Method: as §1

E. coli DH5α pBC-IMP-1 = assay: Susceptibility test (microdilution), transformant; format: cell-based; settings: Escherichia coli, read-out: MPM MIC, +agent 100 μg/mL
Method: as §1

E. coli DH5α pBC-NDM-1 = assay: Susceptibility test (microdilution), transformant; format: cell-based; settings: for MPM MIC: E. coli DH5α pBC-NDM-1
Method: as §1

[8] = +HHIA 6.25 µg/mL, read-out: IPM MIC
[9] = +HHIA 6.25 μg/mL, read-out: MPM MIC
[10] = +HHIA 25 µg/mL, read-out: IPM MIC
[11] = +HHIA 25 μg/mL, read-out: MPM MIC
[12] = +HHIA 100 µg/mL, read-out: IPM MIC
[13] = +HHIA 100 μg/mL, read-out: MPM MIC

C=C(C(=O)O)C(CCCCC(C)O)C(=O)O (stereo not drawn) [9-HHIA, 9-hydroxyhexylitaconic acid]
MIC [1, 8]: 2 µg/mL (≈ 8.69 µM)
MIC [1, 9]: 16 µg/mL (≈ 69.5 µM)
MIC [1, 10]: 4 µg/mL (≈ 17.4 µM)
MIC [1, 11]: 4 µg/mL (≈ 17.4 µM)
MIC [1, 12]: 1 µg/mL (≈ 4.34 µM)
MIC [1, 13]: 0.5 µg/mL (≈ 2.17 µM)
MIC [2, 8]: 64 µg/mL (≈ 278 µM)
MIC [2, 9]: > 64 µg/mL
MIC [2, 10]: 32 µg/mL (≈ 139 µM)
MIC [2, 11]: > 64 µg/mL
MIC [2, 12]: 32 µg/mL (≈ 139 µM)
MIC [2, 13]: 64 µg/mL (≈ 278 µM)
MIC [3, 8]: 8 µg/mL (≈ 34.7 µM)
MIC [3, 9]: 32 µg/mL (≈ 139 µM)
MIC [3, 10]: 4 µg/mL (≈ 17.4 µM)
MIC [3, 11]: 16 µg/mL (≈ 69.5 µM)
MIC [3, 12]: 2 µg/mL (≈ 8.69 µM)
MIC [3, 13]: 4 µg/mL (≈ 17.4 µM)
MIC [4, 8]: 4 µg/mL (≈ 17.4 µM)
MIC [4, 9]: 8 µg/mL (≈ 34.7 µM)
MIC [4, 10]: 2 µg/mL (≈ 8.69 µM)
MIC [4, 11]: 2 µg/mL (≈ 8.69 µM)
MIC [4, 12]: 0.5 µg/mL (≈ 2.17 µM)
MIC [4, 13]: 0.25 µg/mL (≈ 1.09 µM)
MIC (E. coli 465 (IMP-1); [8]): 16 µg/mL (≈ 69.5 µM)
MIC (E. coli 465 (IMP-1); [9]): 32 µg/mL (≈ 139 µM)
MIC (E. coli 465 (IMP-1); [10]): 8 µg/mL (≈ 34.7 µM)
MIC (E. coli 465 (IMP-1); [11]): 8 µg/mL (≈ 34.7 µM)
MIC (E. coli 465 (IMP-1); [12]): 2 µg/mL (≈ 8.69 µM)
MIC (E. coli 465 (IMP-1); [13]): 0.5 µg/mL (≈ 2.17 µM)
MIC (E. coli 426 (IMP-1); [8]): 8 µg/mL (≈ 34.7 µM)
MIC (E. coli 426 (IMP-1); [9]): 8 µg/mL (≈ 34.7 µM)
MIC (E. coli 426 (IMP-1); [10]): 4 µg/mL (≈ 17.4 µM)
MIC (E. coli 426 (IMP-1); [11]): 4 µg/mL (≈ 17.4 µM)
MIC (E. coli 426 (IMP-1); [12]): 2 µg/mL (≈ 8.69 µM)
MIC (E. coli 426 (IMP-1); [13]): 0.25 µg/mL (≈ 1.09 µM)
MIC (E. coli NUBL-22 (IMP-6); [8]): 2 µg/mL (≈ 8.69 µM)
MIC (E. coli NUBL-22 (IMP-6); [9]): 16 µg/mL (≈ 69.5 µM)
MIC (E. coli NUBL-22 (IMP-6); [10]): 1 µg/mL (≈ 4.34 µM)
MIC (E. coli NUBL-22 (IMP-6); [11]): 16 µg/mL (≈ 69.5 µM)
MIC (E. coli NUBL-22 (IMP-6); [12]): 0.5 µg/mL (≈ 2.17 µM)
MIC (E. coli NUBL-22 (IMP-6); [13]): 4 µg/mL (≈ 17.4 µM)
Zinc ions in IMP-1 after treatment (IMP-1 [5]): did not cause a significant loss of zinc ions
Inhibition of hydrolyzing activity of SMB-1 (SMB-1): did not inhibit
Inhibitory activity against VIM-2 (VIM-2): moderate
pKi (IMP-6): 4.56
Inhibition of hydrolyzing activity of NDM-1 (NDM-1): did not inhibit
pIC50 (IMP-1 [6]): 4.30
pKi (IMP-1 [6]): 4.95
Inhibition mode for IMP-1 (IMP-1 [6]; Lineweaver–Burk plots): competitive inhibitors
Melting temperature (Tm) of treated IMP-1 (IMP-1 [7]): 54.9 °C
MPM MIC (E. coli DH5α pCL-SMB-1; +agent 25 μg/mL): 32 µg/mL
MPM MIC (E. coli DH5α pCL-SMB-1; +agent 100 μg/mL): 32 µg/mL
MIC (E. coli DH5α pBC-IMP-1): 0.125 µg/mL (≈ 0.543 µM)
MPM MIC (E. coli DH5α pBC-NDM-1; +agent 25 μg/mL): 64 µg/mL
MPM MIC (E. coli DH5α pBC-NDM-1; +agent 100 μg/mL): 64 µg/mL
MIC (E. coli DH5α pBC-NDM-1; Escherichia coli, read-out: MPM MIC): 64 µg/mL (≈ 278 µM)
